Laboratory results taken from US9115170B2, “Methods and compositions related to internalizing RGD peptides” (Sanford-Burnham Medical Research Institute, priority 2008, dated 2015).

Columns and labels:
[1] = test system: orthotopic 22Rv-1 human prostate cancer xenografts; assay: Confocal microscopy of tumors after injection of peptides, phage and micelles; assay type: in vivo, mice; conditions: free peptides 2 hrs, phage 15 min, micelles 3 hrs circulation
Protocol: (§1) Statistical analysis was performed with Student's t-test.

[2] = test system: αv integrins; conditions: Koivunen et al. 1993, 1995; cited from earlier work
[3] = test system: PPC1 cells; assay: In vitro phage binding assay; assay type: cell-based, human; conditions: for effect of trypsin treatment on binding to PPC1 cells: treatment with trypsin; for phage binding to cells: PPC1 cells, 1 hour at 4° C., phage-displayed peptide
Protocol: (§2) PPC1 cells were incubated with the phage for 1 hour at 4° C. (A) or 37° C. (B). Phage that bound to the cell surface (A) or those that had internalized into the cells (B) were rescued for titration.
(§3) FIGS. 8A and 8B show the binding (A) and internalization (B) of phage displaying CG7C (control phage), iRGD1, and iRGD1 mutants that carry an alanine substitution for each amino acid (underlined) (SEQ ID NOs:1 and 304-310). PPC1 cells were incubated with the phage for 1 hour at 4° C. (A) or 37° C. (B). Phage that bound to the cell surface (A) or those that internalized into the cells were rescued for titration.
(§4) PPC1 cells were incubated with the phage for 1 hour at 4° C. (A) or 37° C. (B). Phage that bound to the cell surface (A) or those that had internalized into the cells were rescued for titration.
(§5) Suspended cells (10^6 cells in DMEM containing 1% BSA) were incubated with 10^8 pfu/ml of T7 phage for 1 hr at 4° C. The cells were washed 4 times with the binding buffer, lysed with lysogeny broth containing 1% NP-40, and titrated. Phage internalization assays used the same procedure, except that the cells were incubated with phage at 37° C., and that an acidic buffer (500 mM sodium chloride, 0.1 M glycine, 1% BSA, pH 2.5) was substituted for the binding buffer in the second wash. Inhibitors of binding and internalization were added 20 min prior to incubation with phage. Non-infectious phage were prepared by treating phage with UV for 8 min in DMEM containing 1% BSA. The resulting UV-inactivated phage particles expressing about 200 peptides per particle were used as multivalent inhibitors. Free synthetic peptides, mouse antibodies against human α1, α2, αvβ3, αvβ5, α5β1, α4, or αv integrins and integrin subunits (Chemicon), goat anti-rat neuropilin-1 (R&D Systems, Minneapolis, Minn.), with mouse and a goat IgG isotype controls (Abcam) were also tested.

[4] = test system: PPC1 cells; assay: In vitro phage internalization assay; assay type: cell-based, human; conditions: for phage internalization into cells: 1 hour at 37° C., acid wash, phage-displayed peptide
Protocol: as §2, §3, §4
To assess the internalization, the phage that bound to the cell surface were removed by washing the cells with acid buffer before phage titration. […] Statistical analysis was performed with Student's t-test. n=3, error bars represent s.d.
Mice were maintained in accordance with institutional guidelines and the animal experiments were approved by the Animal Research Committees at University of California, Santa Barbara and San Francisco. We used transgenic tumor mice (Bardeesy and DePinho, (2002); Arbeit et al., Progressive squamous epithelial neoplasia in K14-human papillomavirus type 16 transgenic mice. J. Virol. 68, 4358-4368 (1994); Hanahan, Heritable formation of pancreatic β-cell tumors in transgenic mice expressing recombinant insulin/simian virus 40 oncogenes. Nature 315, 115-122 (1985)) and xenograft tumors generated by injecting BALB/c nude mice (Harlan Sprague Dawley, Indianapolis, Ind.) with 10^6 human cancer cells orthotopically, intracardiacly or into the brain and tibia. […] Phage homing studies in vivo and cell binding studies in vitro (Zhang et al., (2006)), immunofluorescence (Karmali et al. (2008)) and flow cytometry (Sugahara et al., Hyaluronan oligosaccharides induce CD44 cleavage and promote cell migration in CD44-expressing tumor cells. J. Biol. Chem. 278, 32259-32265 (2003)) were done as described. Whole body imaging was performed 3 hrs after injecting the Cy7-labelled micelles with the Odyssey Infrared Imaging System (LI-COR Biosciences, Lincoln, Nebr.). In phage internalization assays, the cells were treated with 10^9 plaque forming units (pfu) of phage for 1 hr at 37° C., washed with an acidic buffer (glycine-HCl, pH 2.5) to remove and inactivate phage bound to the cell surface, and lysed for phage titration. Peptide internalization was studied by incubating cells with 20 μM of FAM-labelled peptide for 90 min at 37° C. […] To inhibit the binding and/or internalization of the phage, synthetic peptides or phage rendered non-infectious by UV-irradiation were added to the cells 20 min before incubation with the test phage. FAM-labelled peptides in tissues were quantified by measuring the fluorescence with Image J software. Student's t-test and one-way analysis of variance (ANOVA) followed by a suitable post hoc t-test were used for statistical analysis (Table 3).
as §5, with “Free synthetic peptides, mouse antibodies against human α1, α2, αvβ3, αvβ5, α5β1, α4, or αv integrins and integrin subunits (Chemicon), goat anti-rat neuropilin-1 (R&D Systems, Minneapolis, Minn.), with mouse and a goat IgG isotype controls (Abcam) were also tested.” left out

[5] = test system: PPC1 cells; assay: Confocal microscopy of cells incubated with phage; assay type: cell-based, human
From the text: Phage bound to the cell surface were removed by washing the cells with a acidic buffer, and internalized phage were rescued and titrated.
The cells were stained for phage, neuropilin-1, and nuclei. The right panel is a high magnification view of the dotted area in the left panel. […] In almost all tumor ducts examined, αv integrins were positive. […] Scale bars=50 μm.
The cells were stained for phage (arrowed), neuropilin-1 (distal and flanking), and nuclei (central mass). The right panel of […] (SEQ ID NO:298) phage is a high magnification view of the dotted area in the left panel. […] Scale bars=10 μm.
Tissue sections were processed as described (Karmali et al. (2008)). Cells (2×10^5 cells) were grown on collagen I-coated coverslips (BD Biosciences, San Jose, Calif.) overnight, and incubated with 10^8 pfu/ml of T7 phage for 30 min. The cells were fixed in 4% paraformaldehyde, and stained with antibodies and DAPI (Molecular Probes, Eugene, Oreg.). The primary antibodies were rat anti-mouse CD31 monoclonal antibody (BD Biosciences), and rabbit anti-human αv integrin (Chemicon, Temecula, Calif.), rabbit anti-human neuropilin-1 (Chemicon), mouse anti-human neuropilin-1 (Miltenyi Biotec, Auburn, Calif.), and rabbit anti-T7 phage polyclonal antibodies. […]

[6] = test system: PPC1 cells; assay: Inhibition of iRGD phage internalization into PPC1 cells; assay type: cell-based, human; conditions: 37° C.; inhibitor added before test phage
Protocol: (§6) Phage that bound to the cell surface were titered. B, PPC1 cells were treated as described in A except that they were co-incubated with iRGD1 or CG7C phage at 37° C. The internalized phage were rescued for titering as described in the legend for FIG. 5A.
(§7) A, PPC1 cells were pre-treated with or without series of anti-integrin antibodies, or with normal mouse IgG as a control, for 30 min at 4° C., followed by incubation with iRGD1 phage or CG7C control phage for 1 hour at 4° C. (A) or 37° C. (B). Phage that bound to the cell surface (A) or those that internalized into the cells (B) were rescued and titrated.
(§8) Statistical analyses were performed with ANOVA (a, b, d) or Student's t-test (c, e).
(§9) Suspended cells (10^6 cells in DMEM containing 1% BSA) were incubated with 10^8 pfu/ml of T7 phage for 1 hr at 4° C. The cells were washed 4 times with the binding buffer, lysed with lysogeny broth containing 1% NP-40, and titrated. Phage internalization assays used the same procedure, except that the cells were incubated with phage at 37° C., and that an acidic buffer (500 mM sodium chloride, 0.1 M glycine, 1% BSA, pH 2.5) was substituted for the binding buffer in the second wash. Inhibitors of binding and internalization were added 20 min prior to incubation with phage. Non-infectious phage were prepared by treating phage with UV for 8 min in DMEM containing 1% BSA. […]

[7] = test system: M21 cells; assay: CRGDK phage binding and internalization, M21 cells; assay type: cell-based, human
Protocol: as §8, §5

[8] = test system: PPC1 cells; assay: Inhibition of iRGE phage internalization within PPC1 cells; assay type: cell-based, human; conditions: non-infectious phage as inhibitor
Protocol: as §8, §5

[9] = test system: M21 human melanoma cells; assay: iRGD phage binding to M21 cells; assay type: cell-based
Protocol: as §5

[10] = test system: PPC1 cells; assay: Inhibition of iRGD phage binding to PPC1 cells; assay type: cell-based, human; conditions: 4° C.; inhibitor added before test phage
Protocol: as §6, §7, §9

[11] = test system: pancreatic ductal adenocarcinoma (PDAC) tumors; assay: In vivo homing of FAM-labelled peptide to PDAC tumors; parameters: species or system mice; conditions: for effect of excess unlabelled peptide on accumulation of FAM-iRGD in tumors: 10-fold excess injected 30 min before FAM-iRGD
Protocol: FIGS. 3A and 3B show tumor homing of iRGD1 peptide into murine pancreatic carcinoma. A, 200 μg of […] iRGD1 peptide was injected through the tail vein into transgenic mice with pancreatic ductal adenocarcinoma (PDAC) and the peptide was allowed to circulate for 4.5 hrs. B, An excess of non-labeled iRGD1 (2 mg/mouse) was injected into the PDAC mice 30 min prior to the injection of the […] iRGD1 peptide as described in A. Shown are harvested organs observed under UV light (left) and white light (right).
Approximately 200 μg of FAM-iRGD1 was injected into mice bearing PDACs and allowed to circulate for 15 min (A), 30 min (B), 2 hrs (C) and 4.5 hrs (D). The nuclear staining with DAPI and vascular endothelial cell staining with an anti-CD31 antibody, respectively are shown. Note that at 15 (A) to 30 min (B) post-injection of FAM-iRGD1, the dye stays in the vessels (arrows) or in the cells surrounding the vessels (A, arrowheads in window at the right upper corner), but no vascular staining with the peptides is observed after 2 hrs (C, arrow) or 4.5 hrs (D, arrow). At 30 min post peptide injection, the peptide fluorescence appears in tumor glands (B, main panel and upper right corner inset); some individual cells within the tumor are strongly positive after 2 hrs (C, asterisks) and 4.5 hrs (D, asterisk).
as §1
Approximately 200 μg of […] iRGD1 peptide (FAM-iRGD1) was injected through the tail vein into immuno-deficient mice bearing xenograft of PPC1 human prostate carcinoma, MIA PaCa-2 human pancreatic carcinoma, or MDA-MB-435 human breast carcinoma and was allowed to circulate for 4.5 hrs (FIG. 2). […] Confocal microscopy of PDAC tumor sections from animals injected with FAM-iRGD1 indicated time-dependent in vivo homing dynamics for this peptide. […] The peptide fluorescence associated with the tumors cells was condensed into the perinuclear area of the tumor cells (FIGS. 4C and 4D, asterisks).

[12] = test system: PPC1 cells; assay: Inhibition of trypsin-treated iRGD phage binding to PPC1 cells; assay type: cell-based, human; conditions: 4° C.; non-infectious phage as inhibitor
Protocol: as §8, §5

[13] = test system: PPC1 cells; assay: Inhibition of CRGDK phage binding to PPC1 cells; assay type: cell-based, human
Protocol: as §8, §5

Substance: CDCRGDCFC [RGD-4C]
- distribution within tumor (confocal microscopy) [1]: accumulated only in and around tumor blood vessels
- affinity for αv integrins [2]: strong affinity
- effect of trypsin treatment on binding to PPC1 cells [3]: no effect

Substance: CRG [CRG phage]
- phage internalization into cells [4]: did not
- phage binding to cells [3]: did not

Substance: CRGD [CRGD phage]
- phage internalization into cells [4]: did not
- phage binding to cells [3]: did not

Substance: CRGDC
- distribution within tumor (confocal microscopy) [1]: accumulated only in and around tumor blood vessels
- affinity for αv integrins [2]: strong affinity
- effect of trypsin treatment on binding to PPC1 cells [3]: no effect

Substance: CRGDGGPDC
- co-localization with neuropilin-1 (confocal microscopy) [5]: did not co-localize
- internalization into cells (confocal microscopy) [5]: nor did they internalize

Substance: CRGDK [CRGDK phage]
- inhibition of iRGD phage internalization into PPC1 cells [6]: blocked
- binding to M21 cells with different αv integrin expression levels [7]: binds similarly
- phage binding to M21 cells with minimal expression of neuropilin-1 [7]: did not substantially bind
- phage internalization into M21 cells with minimal expression of neuropilin-1 ([7]; 1 hour at 37° C.): did not substantially bind to or internalize
- increase of binding by forced expression of neuropilin-1 ([7]; M21 cells transfected with neuropilin-1 cDNA): 3.5 fold
- increase of internalization by forced expression of neuropilin-1 ([7]; M21 cells transfected with neuropilin-1 cDNA, not shown): 3.5 fold
- internalization relative to iRGD phage ([7]; M21 cells, 1 hour at 37° C.): reversed
- internalization relative to iRGD phage ([4]; 37° C.): more efficiently than iRGD phage
- phage internalization into cells [4]: internalized
- phage binding to cells [3]: bound to
- inhibition of iRGE phage internalization within PPC1 cells [8]: inhibited the internalization

Substance: CRGDKG [CRGDKG phage]
- phage internalization into cells [4]: internalized
- phage binding to cells [3]: bound

Substance: CRGDKGPDC [iRGD1]
- binding to M21 cells that express both αvβ3 and αvβ5 [9]: bound
- binding to M21 variants lacking expression of αvβ3 and αvβ5 [9]: did not
- inhibition of iRGD phage binding to PPC1 cells [10]: inhibited in a dose-dependent manner
- effect of excess unlabeled peptide on accumulation of FAM-iRGD1 in PDAC tumors ([11]; 2 mg/mouse 30 min prior to FAM-iRGD1): inhibited the accumulation
- effect of excess unlabelled peptide on accumulation of FAM-iRGD in tumors [11]: greatly reduced

Substance: CRGDKGPEC [iRGD3]
- phage internalization into cells [4]: similar
- phage binding to cells [3]: similar

Substance: CRGDRGPDC [iRGD2]
- phage internalization into cells [4]: similar
- phage binding to cells [3]: similar

Substance: CRGEKGPDC [iRGE, reference compound]
- effect of excess unlabelled peptide on accumulation of FAM-iRGD in tumors [11]: did not have the same effect

Substance: RPARPAR [RPARPAR phage]
- inhibition of binding of trypsin-treated iRGD phage [12]: blocked
- inhibition of iRGD phage internalization into PPC1 cells [6]: blocked
- inhibition of CRGDK phage binding to PPC1 cells [13]: dose-dependently inhibited
- inhibition of iRGE phage internalization within PPC1 cells [8]: inhibited the internalization
